Assay results as given in patent US7419683B2, “Method of inhibiting side effects of pharmaceutical compositions containing amphiphilic vehicles or drug carrier molecules” (United States of America as Represented by the Secretary of …, priority 1998, dated 2008).

Key:
[1] = tested on: SC5b-9; assay: In vitro complement activation in human serum, SC5b-9 ELISA; assay type: biochemical; settings: for C activation (serum SC5b-9), result in words: human sera, Table 1
Experimental: Non-anticoagulated blood was drawn from healthy volunteers and from cancer patients according to protocols approved, as additions to existing protocols, by the Walter Reed Army Medical Center Human Use Committee, and by the University of Southern California (USC)/Norris Cancer Center Institutional Review Board and General Clinical Research Center. […] Blood was allowed to clot at room temperature and the serum was stored at −80° C. It was thawed and kept at 4° C. before incubation with the test agents.
To assess C activation in vitro we measured the drug-induced rise of two C split products, SC5b-9 and Bb, using ELISA kits from Quidel Corp. (San Diego, Calif.). SC5b-9 is the soluble, S-protein-bound form of the terminal complex, a sensitive measure of C5a formation through both the classical and the alternative pathways, while Bb is the proteolytically active fragment of factor B, a specific marker of C activation through the alternative pathway. The test agents were incubated with the serum in a shaking water bath (80 rpm cycle) for 30 to 60 min at 37° C. at an activator to serum volume ratio of 1:5 or 1:10. […] The reaction was stopped by adding 20 volume of the specimen diluent from the ELISA kits containing PBS, 0.05% Tween-20, protein stabilizers, and 0.01% Thimerosal.

[2] = tested on: liposome-induced pulmonary hypertension; assay: Inhibition of liposome-induced pulmonary hypertension (PAP) in pigs; assay type: in vivo, pig
Experimental: FIG. 12. The effects of complement inhibitors and indomethacin on liposome-induced pulmonary hypertension. Panel A presents the standard liposome-induced changes in PAP before and at different times after the administration of the indicated inhibitors, each in a different animal. […] Inhibitors were injected in the jugular vein in 4-8 mL PBS, at the following doses: GS1, 1.6 mg/kg (squares), sCR1, 0.2 mg/kg (open circles) and 2 mg/kg (closed circles); indomethacin, 5 mg/kg (triangles).
Experiments were-performed in accordance with the guidelines of the Committee on Animal Care of the Uniformed Services University of the Health Sciences and with the Guide for the Care and the Use of Laboratory Animals (Department of Health and Human Services, Publication No. [NIH] 86-23). Female Yorkshire swine (32-48 kg) were sedated with i.m. ketamine and anesthetized with halothane by nose cone. The trachea was intubated and anesthesia was maintained with halothane (1%). […] Systemic vascular resistance (SVR) and pulmonary vascular resistance (PVR) were calculated from SAP, PAP, CO, CVP and LVEDP, using standard formulas (Fontana, J. L. et al., 1995, Anesth. Analg. 80, 219) Blood pressure values and leads II and V5 of the electrocardiogram (ECG) were obtained continually.

[3] = tested on: miniature pigs; settings: previous study; cited from earlier work
[4] = tested on: Cremophor EL-induced complement activation; assay: Inhibition of Cremophor EL-induced complement activation (SC5b-9) in human serum; assay type: biochemical; settings: Cremophor EL 8.8 mg/ml, serum of a healthy subject
Experimental: FIG. 4. Inhibition of Cremophor EL-induced complement activation by soluble complement receptor type 1 (sCR1): dose activity relationship. […] Serum levels of SC5b-9 were measured by enzyme-linked immunoasorbent assay, as described. Bars=mean values with 95% confidence interval, obtained from triplicate wells. The rise of SC5b-9 relative to PBS was statistically significant at *, P=0.0006 and **, P=0.002 (Student's two-sample t test, two-tailed).
To assess C activation in vitro we measured the drug-induced rise of two C split products, SC5b-9 and Bb, using ELISA kits from Quidel Corp. (San Diego, Calif.). SC5b-9 is the soluble, S-protein-bound form of the terminal complex, a sensitive measure of C5a formation through both the classical and the alternative pathways, while Bb is the proteolytically active fragment of factor B, a specific marker of C activation through the alternative pathway. The test agents were incubated with the serum in a shaking water bath (80 rpm cycle) for 30 to 60 min at 37° C. at an activator to serum volume ratio of 1:5 or 1:10. Typically, 5 μl of drug (stock) was added to 45 μl of serum placed in Eppendorf tubes. The reaction was stopped by adding 20 volume of the specimen diluent from the ELISA kits containing PBS, 0.05% Tween-20, protein stabilizers, and 0.01% Thimerosal.

[5] = pigs; cited from earlier work
[6] = tested on: LEH-induced complement activation; settings: human serum, in vitro, cited from earlier work
[7] = tested on: C-mediated harmful effects; settings: in vitro; cited from earlier work

For `CC(=O)O[C@H]1C(=O)[C@@]2(C)[C@H]([C@H](OC(=O)c3ccccc3)[C@]3(O)C[C@H](OC(=O)[C@H](O)[C@@H](NC(=O)c4ccccc4)c4ccccc4)C(C)=C1C3(C)C)[C@]1(OC(C)=O)CO[C@@H]1C[C@@H]2O` [Paclitaxel, paclitaxel], the SC5b-9 ([1]; paclitaxel 100 ug/mL, bar marked * in FIG. 2 (with 95% confidence interval)) was 67.4 (65.8-69) ug/ml.
With `N.N.O=C([O-])C1(C(=O)[O-])CCC1.[Pt+2]` [carboplatin] the “C activation (serum SC5b-9), result in words” value (from here on “C activation”) [1] was “did not cause C activation”, the SC5b-9 ([1]; subject 2 (healthy donor), dose 100 μg/ml, no ethanol) was 3.4 µg/mL and the SC5b-9 ([1]; subject 4 (cancer patient), dose 100 μg/ml, no ethanol) was 5.5 µg/mL.
With `CC(=O)O[C@@]12CO[C@@H]1C[C@H](O)[C@@]1(C)C(=O)[C@H](O)C3=C(C)[C@@H](OC(=O)[C@H](O)[C@@H](NC(=O)OC(C)(C)C)c4ccccc4)C[C@@](O)([C@@H](OC(=O)c4ccccc4)[C@H]21)C3(C)C` [docetaxel] the “C activation” value [1] was “caused C activation only when the drug (formulated in Tween-80) was added to human serum together with ethanol”, the SC5b-9 ([1]; subject 1 (healthy donor), dose 100 μg/ml (H2O), 30 min 37° C.) was 1.8 µg/mL and the SC5b-9 ([1]; subject 1 (healthy donor), dose 100 μg/ml with 0.8% ethanol, 30 min 37° C.) was 16.0 µg/mL. It also gave an SC5b-9 ([1]; subject 2 (healthy donor), dose 100 μg/ml with 0.8% ethanol) of 28.6 µg/mL, an SC5b-9 ([1]; subject 3 (healthy donor), dose 100 μg/ml (H2O)) of 0.2 µg/mL and an SC5b-9 ([1]; subject 4 (cancer patient), dose 100 μg/ml with 0.8% ethanol) of 38.5 µg/mL.
In the case of `CCO` [ethanol], the “C activation” value [1] is reported as “did not cause significant elevation of serum SC5b-9”, the SC5b-9 ([1]; subject 2 (healthy donor), dose 0.8% (final serum concentration)) is reported as 3.2 µg/mL and the SC5b-9 ([1]; subject 3 (healthy donor), dose 0.4% (final serum concentration)) is reported as 0.5 µg/mL. The SC5b-9 ([1]; subject 4 (cancer patient), dose 0.8% (final serum concentration)) was 6.6 µg/mL.
For `COc1ccc2c(c1)c(CC(=O)O)c(C)n2C(=O)c1ccc(Cl)cc1` [indomethacin], the “effect on pulmonary reaction to 5 mg liposome boluses” value ([2]; 5 mg/kg i.v., all tested pigs) is listed as “completely suppressed” and the “rise of PVR after liposomes with indomethacin treatment” value [3] is listed as 20%.
With “sCR1: Recombinant soluble complement receptor type 1” the “dose providing complete suppression of Cremophor EL/ethanol-induced increase of SC5b-9” value [4] was 1.8 µg/mL, the “doses significantly inhibiting Cremophor EL/ethanol-induced increase of SC5b-9” value [4] was greater than 0.6 µg/mL and the “inhibition of PAP response to 5 mg liposome boluses” value ([2]; 0.2 and 2 mg/kg i.v. (in 2-2 pigs), maximal inhibition) was 30-100%. The “plasma clearance α-phase t1/2” value [5] was 8.3 min, the “plasma clearance β-phase t1/2” value [5] was 6.05 h and the “share of the drug clearing slowly” value [5] was 31%. The “dose providing complete suppression of SC5b-9 formation” value ([6]; LEH-induced) was 20 µg/mL, the “doses significantly inhibiting LEH-induced complement activation” value [6] was greater than 0.8 µg/mL and the “concentration range of potent inhibition of C-mediated harmful effects” value [7] was 10 to 40 µg/mL.
